Measured values reported in PMC11440508, “Dually Labeled Neurotensin NTS1R Ligands for Probing Radiochemical and Fluorescence-Based Binding Assays” (Journal of Medicinal Chemistry, 2024).

How the values were obtained:
NTS1R [1] = biological target: T1, NTS1R (Homo sapiens, UniProt P30989); test: Radiochemical competition binding, adherent CHO-hNTS1R cells; conditions: labeled probe [^3H]13 (1.3 nM), 90 min, 23 °C, read-out: RC adherent cells: pKi ± SEM (converted)
NTS1R [2] = biological target: T1, NTS1R; test: Radioligand competition binding with [^3H]UR-MK300 at intact HT-29 colon carcinoma cells; conditions: [^3H]UR-MK300, intact HT-29 cells, 23 °C; read-out: NTS1R pKi ± SEM (converted)
Protocol: NTS1R binding affinities were determined in a reported competition binding assay[13] using intact hNTS1R-expressing HT-29 colon carcinoma cells and [^3H]UR-MK300 (structure see Figure 1A) as radioligand (competition binding curves shown in Figure S4, Supporting Information).
NTS1R radioligand competition binding experiments with [^3H]UR-MK300 (molar activity: 2.41 TBq/mmol) and the peptides 6–9, 10a, 10b, 13–16, and 18 were performed with intact hNTS1R-expressing human HT-29 colon carcinoma cells at 23 ± 1 °C using a previously reported protocol.[13] […] Cells were seeded one day before the assay, yielding a confluency of at least 90% on the day of the experiment. Total binding data (including total binding in the absence of competitor) were plotted as dpm values against log(concentration competitor) and analyzed by a four-parameter logistic equation (log(inhibitor) vs response–variable slope, GraphPad Prism 5, GraphPad Software, San Diego, CA) to obtain pIC50 values. Individual pIC50 values were converted to pKi values according to the Cheng–Prusoff equation[60] (logarithmic form). To plot average data from individual binding experiments, data were normalized (100% = “top” of the four-parameter logistic fit, 0% = unspecifically bound radioligand).

NTS1R [3] = biological target: T1, NTS1R; test: Radiochemical association and dissociation kinetics, adherent CHO-hNTS1R cells; type: binding
Protocol: (§1) Binding of both ligands, [^3H]13 and [^3H]18, was studied at adherent and suspended intact CHO-hNTS1R cells, and binding of [^3H]13 was additionally studied using CHO-hNTS1R cell membrane preparations (saturation and competition binding, kinetic studies). Furthermore, saturation binding experiments were performed with both ligands at intact adherent HT-29 cells. All experiments were performed in triplicate except for dissociation experiments performed with suspended cells in 50 mL flacon tubes (performed in duplicate). To reduce radioligand consumption in the aforementioned experiments, [^3H]13 and [^3H]18 were 1:1 diluted with 13 and 18, respectively (for the purpose of easier reading these mixtures are denoted "[^3H]13" and "[^3H]18"in the following). All samples were incubated at 23 ± 1 °C in the dark under gentle shaking (incubation times are outlined below). DPBS1 served as binding buffer throughout. In the case of experiments performed with cell suspensions, CHO-hNTS1R cells were seeded in T75 culture flasks 3–4 days prior to the experiment. On the day of the experiment, cells were detached by trypsinization, suspended in DPBS1 and centrifuged at 200g at rt for 5 min. Cells were resuspended in binding buffer and the cell density was adjusted to 1.5 × 10^5 to 2.5 × 10^5 cells/mL. Samples involving suspended cells or membrane preparations were prepared and incubated in 96-well polypropylene plates (Brand 701330, Wertheim, Germany) or in 50 mL polypropylene falcon tubes (Sarstedt), and the same filtration procedure for separating free radioligand from cell- or membrane bound radioligand was applied for all kind of binding experiments: after completed incubation, cells or cell membranes were collected on GF/C filter mats (0.26 mm; Whatman, Maidstone, U.K.) (pretreated with 0.3% polyethylenimine for 30 min) using an in-house manufactured harvester for 96-well plates (precision engineering workshop of the University of Regensburg, Regensburg, Germany), and the wells of the plate and the cells on the filter mat were immediately washed twice with ice-cold PBS (2 × 200 μL) (note: when samples were incubated in falcon tubes, 200-μL aliquots were transferred to the wells of a 96-well polypropylene plate after the incubation period, immediately followed by the filtration procedure). Filter pieces for each well were punched out and transferred into 1450–401 96-well sample plates (PerkinElmer, Rodgau, Germany), followed by the addition of Rotiscint Routine (Carl Roth, Karlsruhe, Germany) (200 μL). The plates were sealed with transparent sealing tape (Greiner EASYseal, part no. 676001, Greiner Bio-One) and shaken in the dark overnight before measurement of the radioactivity (dpm) using a MicroBeta2 plate counter equipped with six pairs of photomultiplier tubes (PerkinElmer).
For experiments involving adherent cells, CHO-hNTS1R (25,000 cells per well) or HT-29 (35,000 cells per well) cells were seeded one day prior to the experiment in white 96-well plates with clear bottom (VWR 732–3740). On the day of the experiment, the medium was aspirated and the cells (confluency: 70–90%) were washed with PBS (200 μL) followed by covering with DPBS1 (160 μL) and the addition of the ligands as outlined below. After completed incubation, the liquid was aspirated and the wells were washed twice with ice-cold PBS (200 μL) followed by the addition of lysis solution (urea (8 M), acetic acid (3 M) and Triton-X (1%) in water) (25 μL). After shaking for at least 20 min, liquid scintillator (UltimaGold, PerkinElmer) (200 μL) was added and the plates were sealed with a transparent sealing tape (permanent seal for microplates, PerkinElmer, prod. no. 1450–461). The sealed plates were turned upside down several times to achieve complete mixing of scintillator and lysis solution and were kept in the dark for at least 3 h before measurement of the radioactivity (dpm) with the MicroBeta2 plate counter. […]

NTS1R [4] = biological target: T1, NTS1R; test: Radiochemical association and dissociation kinetics, suspended CHO-hNTS1R cells; type: binding
Protocol: as §1
To start the association, 20 μL of an 18 nM solution of [^3H]13 or 20 μL of a 12 nM solution of [^3H]18 in DPBS1 (final concentrations: 1.8 or 1.2 nM) were added. The samples of the different time points were prepared in reversed order (longest incubation time first, shortest incubation time last) so that the cells of all samples could be harvested simultaneously. The time span for sample incubation was 1–180 min. Adherent cells: 96-well white/clear bottom plates with adherent cells were prefilled with DPBS1 (160 μL) after initial washing of the cells. […] To start the association, 20 μL of a 13 nM solution of [^3H]13 or 20 μL of an 11 nM solution of [^3H]18 in DPBS1 (final concentrations: 1.3 or 1.1 nM) were added. When the incubation time was reached, all liquid was removed by suction followed by washing (2 × ice-cold PBS) and cell lysis. The samples of the different time points were prepared in reversed order (longest incubation time first, shortest incubation time last) so that the cells of all samples could be washed and lysed simultaneously. […]

T1 sequence (P30989 whole entry): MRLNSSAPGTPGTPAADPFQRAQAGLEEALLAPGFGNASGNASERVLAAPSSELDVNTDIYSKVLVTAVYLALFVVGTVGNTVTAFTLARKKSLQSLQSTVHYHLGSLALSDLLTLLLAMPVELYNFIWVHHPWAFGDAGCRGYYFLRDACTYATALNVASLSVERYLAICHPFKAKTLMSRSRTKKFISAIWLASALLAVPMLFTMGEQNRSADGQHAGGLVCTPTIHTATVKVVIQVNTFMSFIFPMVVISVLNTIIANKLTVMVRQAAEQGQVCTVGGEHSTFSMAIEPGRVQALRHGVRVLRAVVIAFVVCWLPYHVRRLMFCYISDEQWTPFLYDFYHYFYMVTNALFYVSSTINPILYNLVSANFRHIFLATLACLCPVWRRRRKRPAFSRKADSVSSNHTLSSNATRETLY

## CCC(=O)NCCCCNC(=O)N=C(N)NCCC[C@H](NC(=O)[C@@H]1CCCN1C(=O)[C@@H](NC(=O)CCc1cn(CCCNC(=O)c2ccc(-c3c4ccc(=[N+](C)C)cc-4oc4cc(N(C)C)ccc34)c(C(=O)[O-])c2)nn1)C1CCNCC1)C(=O)N[C@@H](CCCNC(=N)N)C(=O)N1CCC[C@H]1C(=O)N[C@@H](Cc1ccc(O)cc1)C(=O)N[C@H](C(=O)N[C@@H](CC(C)C)C(=O)O)[C@@H](C)CC [Compound 13, N^α-(3-(1-N-((1-Carboxylato-2-(6-(dimethylamino)-3-(dimethyliminio)-3H-xanthen-9-yl)phen-5-yl)1-oxomethyl)aminoprop-3-yl-1H-1,2,3-triazol-4-yl)propanoyl)-2-(piperidin-4-yl)-Gly-Pro-N^ω-[(4-(N-propanoyl)aminobutyl)aminocarbonyl]Arg-Arg-Pro-Tyr-Ile-Leu Tris(hydrotrifluoroacetate)]
NTS1R [1]
  Ki: 1.51 nM

## CCC(=O)NCCCCNC(=O)NC(=N)NCCC[C@H](NC(=O)[C@@H]1CCCN1C(=O)[C@@H](NC(=O)CCc1cn(CCCNC(=O)CCC#Cc2ccc3c(c2)C(C)(C)C2=C4C=C5C6=[N+](CCC5OC4CCN23)c2ccc(S(=O)(=O)[O-])cc2C6(C)C)nn1)C1CCNCC1)C(=O)N[C@@H](CCCNC(=N)N)C(=O)N1CCC[C@H]1C(=O)N[C@H](C(=O)N[C@H](C(=O)N[C@@H](CC(C)C)C(=O)O)[C@@H](C)CC)C(C)(C)c1ccc(O)cc1 (stereo partly drawn) [Compound 18, N^α-(3-(N-(1-(8-Sulfonato-5,5,27,27-tetramethyl-16-oxa-20-aza-12-azoniaheptacyclo[15.11.0.03,15.04,12.06,11.020,28.021,26]octacosa-1(28),2,4(12),6(11),7,9,21(26),22,24-nonaen-24-yl)-5-oxopentyn-5-yl)-1-aminoprop-3-yl-1H-1,2,3-triazol-4-yl)propanoyl)-2-(piperidin-4-yl)-Gly-Pro-N^ω-[(4-(N-propanoyl)aminobutyl)aminocarbonyl]Arg-Arg-Pro-β,β-dimethyl-L-Tyr-Ile-Leu Tris(hydrotrifluoroacetate)]
NTS1R [2]
  Ki: 4.07 nM

## CCC(=O)NCCCCNC(=O)NC(=N)NCCC[C@H](NC(=O)[C@@H]1CCCN1C(=O)[C@@H](NC(=O)CCc1cn(CCCNC(=O)c2ccc(-c3c4ccc(=[N+](C)C)cc-4oc4cc(N(C)C)ccc34)c(C(=O)[O-])c2)nn1)C1CCNCC1)C(=O)N[C@@H](CCCNC(=N)N)C(=O)N1CCC[C@H]1C(=O)N[C@@H](Cc1ccc(O)cc1)C(=O)N[C@H](C(=O)N[C@@H](CC(C)C)C(=O)O)[C@@H](C)CC [[^3H]13]
NTS1R [3]; adherent CHO-hNTS1R cells, 23 °C, read-out: koff [min^–1] (converted)
  koff: 0.000233 s⁻¹
NTS1R [3]; adherent CHO-hNTS1R cells, biphasic exponential fit
  kobs(slow) [min^–1]: 0.011 ± 0.001 ^b min^–1
NTS1R [3]; adherent CHO-hNTS1R cells, calculated from koff, kobs(fast) and ligand concentration, read-out: kon(fast) [min^–1 nM^–1] (converted)
  kon: 5.5e+06 M⁻¹ s⁻¹
NTS1R [3]; adherent CHO-hNTS1R cells, koff/kon(fast), read-out: Kd(kin)
  Kd: 0.41 ± 0.24 nM
NTS1R [3]; adherent CHO-hNTS1R cells, monophasic fit of initial association phase, 1.3 nM [^3H]13 or […] [^3H]18
  kobs(fast) [min^–1]: 0.57 ± 0.08 ^a min^–1
NTS1R [3]; adherent cells
  Proportion of fast kinetic component (association): 19%
  Proportion of slow kinetic component (association): 81%
NTS1R [4]; suspended CHO-hNTS1R cells (50 mL falcon tubes), 23 °C, read-out: koff [min^–1] (converted)
  koff: 0.0006 s⁻¹
NTS1R [4]; suspended CHO-hNTS1R cells, biphasic exponential fit
  kobs(slow) [min^–1]: 0.051 ± 0.001 ^b min^–1
NTS1R [4]; suspended CHO-hNTS1R cells, calculated from koff, kobs(fast) and ligand concentration, read-out: kon(fast) [min^–1 nM^–1] (converted)
  kon: 1.35e+07 M⁻¹ s⁻¹
NTS1R [4]; suspended CHO-hNTS1R cells, koff/kon(fast), read-out: Kd(kin)
  Kd: 0.044 ± 0.02 nM
NTS1R [4]; suspended CHO-hNTS1R cells, monophasic fit of initial association phase, 1.8 nM [^3H]13 or […] [^3H]18
  kobs(fast) [min^–1]: 1.5 ± 0.3 ^a min^–1
NTS1R [4]; suspended cells
  Proportion of fast kinetic component (association): 21%
  Proportion of slow kinetic component (association): 79%
